US20260137706A1, “METHODS OF TREATING INFLAMMATORY DISEASES” (INTERLINE THERAPEUTICS, INC., priority 2023, published 2026)
Read-outs that look alike come from different tables or passages of the source.

Tests used:
[1] = biological target: T1, GST-RIPK2 fusion protein (human RIPK2, amino acids 1-310) (Homo sapiens, UniProt O43353); experiment: RIPK2 binding competition assay (TR-FRET, Tracer 199 displacement); conditions: 10 nM Tracer 199, 1 nM GST-RIPK2, read-out: RIPK2 IC50
T1 construct: made in house; host or cells: baculovirus infected Sf9 cells
Outline: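 IC50 derived from the TR-FRET emission ratio (665/620 nm, 337 nm excitation), normalized with no-inhibitor and no-enzyme controls. Incubation 45 min at 22 °C, pH 7.5 Tris buffer, with final 10 nM tracer, 1 nM Sf9-expressed GST-RIPK2 fragment (aa 1-310) and 0.5 nM Tb-labelled anti-GST.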

[2] = test system: NF-κB pathway (SEAP) in THP1-Dual cells; experiment: THP-1 Dual cell SEAP assay (L18-MDP stimulated); assay type: cell-based; conditions: Homo sapiens, THP1-Dual, read-out: NF-κB THP1 IC50 bin
Outline: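 IC50 values derive from non-linear regression of % inhibition, calculated against DMSO/L18-MDP-treated wells after media-only subtraction. NF-κB SEAP activity was read at OD 620-655 nm (QUANTI-Blue, 2 h, 37 °C) from supernatants of THP1-Dual cells. Cells had been compound-treated 30 min before overnight (20-24 h) stimulation with 10 ng/mL final L18-MDP.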

[3] = biological target: T2, binding of His-XIAP(BIR2)-avi fusion protein to GST-RIPK2 fusion protein (RIPK2/XIAP) (Homo sapiens, UniProt O43353); experiment: RIPK2-XIAP binding competition PPI assay (TR-FRET); conditions: for Emax: read-out: PPI Amax bin; for IC50: read-out: PPI IC50 bin
T2 construct: made in house; host or cells: baculovirus infected Sf9 cells
Outline: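 Compounds (in DMSO, 100-fold stock) incubated 120 min at 23 °C with 1 nM GST-RIPK2 (aa 1-310) and 25 nM His-XIAP(BIR2 aa 152-231)-avi, plus anti-His-XL665 and anti-GST-Tb, in pH 7.5 Tris buffer. Read-out: 665/520 nm emission ratio. Normalized to no-inhibitor (0%) and 50 nM GSK583 (−100%); Amax binned A–D.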

[4] = RIPK2/XIAP binding competition PPI assay, Amax
[5] = RIPK2/XIAP binding competition PPI assay

T2 sequence (O43353 1-310 limits assumed): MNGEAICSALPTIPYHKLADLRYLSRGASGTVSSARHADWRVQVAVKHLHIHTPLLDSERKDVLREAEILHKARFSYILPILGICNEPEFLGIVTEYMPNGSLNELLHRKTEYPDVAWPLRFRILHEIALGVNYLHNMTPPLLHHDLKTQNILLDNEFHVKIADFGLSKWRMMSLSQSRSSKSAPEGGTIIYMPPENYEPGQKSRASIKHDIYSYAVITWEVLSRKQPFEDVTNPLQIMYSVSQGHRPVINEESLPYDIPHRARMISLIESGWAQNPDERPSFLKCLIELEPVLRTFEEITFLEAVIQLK
T1 sequence (O43353 1-310): as the sequence (O43353 1-310 limits assumed) above

Structure (SMILES) | IC50 [1] | IC50 [2] | Emax [3, 4] | IC50 [3, 5] | Emax [3]
COc1cc2ncc(-c3cc(N)cc4[nH]ncc34)n2cc1S(=O)(=O)C(C)(C)C [Example 7, 4-[7-Methoxy-6-(2-methylpropane-2-sulfonyl)imidazo[1,2-a]pyridin-3-yl]-1H-indazol-6-amine] | > 20 nM | > 1000 nM | 30 to 55% | > 20 nM | 
CC(C)(C)S(=O)(=O)c1cn2c(-c3cc(F)c(N)nc3F)cnc2cc1OCCO [Example 12, 2-((3-(6-amino-2,5-difluoropyridin-3-yl)-6-(tert-butylsulfonyl)imidazo[1,2-a]pyridin-7-yl)oxy)ethan-1-ol] | 2.5 to 20 nM | 50 to 250 nM |  | 2.5 to 20 nM | > 80%
CC(C)(C)C(C)(O)c1cn2c(-c3cc(F)c(N)nc3F)cnc2cc1OCCO (single isomer, unassigned) [Example 295] | 2.5 to 20 nM | > 1000 nM | > 80% | 2.5 to 20 nM | 
CCCS(=O)(=O)Nc1cc(-c2cnc3cc(OC)c(S(=O)(=O)C4(C)CC4)cn23)cc(OC)c1OC [Example 67, N-(2,3-dimethoxy-5-(7-methoxy-6-((1-methylcyclopropyl)sulfonyl)imidazo[1,2-a]pyridin-3-yl)phenyl)propane-1-sulfonamide] | < 1 nM | < 50 nM | > 80% | < 1 nM | 
COc1cc2ncc(-c3ccn4nccc4c3)n2cc1S(=O)(=O)C(C)(C)C [Example 94, 6-(tert-butylsulfonyl)-7-methoxy-3-(pyrazolo[1,5-a]pyridin-5-yl)imidazo[1,2-a]pyridine] | 2.5 to 20 nM | 250 to 1000 nM | < 30% | > 20 nM | 
COc1cc2ncc(-c3cn(C)c4ncccc34)n2cc1S(=O)(=O)C(C)(C)C [Example 99, 6-(tert-butylsulfonyl)-7-methoxy-3-(1-methyl-1H-pyrrolo[2,3-b]pyridin-3-yl)imidazo[1,2-a]pyridine] | 2.5 to 20 nM | > 1000 nM | < 30% | > 20 nM | 
CC(C)(C)S(=O)(=O)c1cn2c(-c3cnc4[nH]ncc4c3)cnc2cc1OCCO [Example 222, 2-((6-(tert-butylsulfonyl)-3-(1H-pyrazolo[3,4-b]pyridin-5-yl)imidazo[1,2-a]pyridin-7-yl)oxy)ethan-1-ol] | 2.5 to 20 nM | > 1000 nM | < 30% | > 20 nM | 
C[C@H](CO)Oc1cc2ncc(-c3cc(Cl)c(N)nc3F)n2cc1S(=O)(=O)C(C)(C)C [Example 258, (R)-2-((3-(6-amino-5-chloro-2-fluoropyridin-3-yl)-6-(tert-butylsulfonyl)imidazo [1,2-a]pyridin-7-yl)oxy)propan-1-ol] | 2.5 to 20 nM | 250 to 1000 nM | > 80% | 2.5 to 20 nM | 
COc1cc2ncc(-c3cc(F)c(N)nc3F)n2cc1S(=O)(=O)C(C)(C)Cn1cccn1 [Example 65, 3,6-difluoro-5-(7-methoxy-6-((2-methyl-1-(1H-pyrazol-1-yl)propan-2-yl)sulfonyl)imidazo[1,2-a]pyridin-3-yl)pyridin-2-amine] | > 20 nM | > 1000 nM | > 80% | > 20 nM | 
COc1cc2ncc(-c3cnc4c(c3)CC(=O)N4)n2cc1S(=O)(=O)C(C)(C)C [Example 83, 5-(6-(tert-butylsulfonyl)-7-methoxyimidazo[1,2-a]pyridin-3-yl)-1,3-dihydro-2H-pyrrolo[2,3-b]pyridin-2-one] | > 20 nM | > 1000 nM | < 30% | > 20 nM | 
CC(C)(C)S(=O)(=O)c1cn2c(-c3cnc4ccnn4c3)cnc2cc1OCCO [Example 221, 2-((6-(tert-butylsulfonyl)-3-(pyrazolo[1,5-a]pyrimidin-6-yl)imidazo[1,2-a]pyridin-7-yl)oxy)ethan-1-ol] | > 20 nM | > 1000 nM | > 80% | > 20 nM | 
